From patent US20210000792A1, “METHODS FOR REDUCING OR PREVENTING CARDIOVASCULAR EVENTS IN PATIENTS WITH TYPE II DIABETES MELLITUS” (Janssen Pharmaceutica NV, priority 2017, published 2021)

Legend:
[1] = test system: men and women with type 2 diabetes and history or high risk of cardiovascular disease; experiment: CANVAS Program: integrated CANVAS and CANVAS-R clinical trials, canagliflozin versus placebo; type: in vivo, human; conditions: for Cardiovascular mortality, hazard ratio (95% confidence interval) / Total (all-cause) mortality, hazard ratio (95% confidence interval): full integrated dataset; for Primary outcome (cardiovascular mortality, nonfatal myocardial infarction, or nonfatal stroke), hazard ratio (95% confidence interval): canagliflozin vs placebo; for Primary outcome (cardiovascular mortality, nonfatal myocardial infarction, or nonfatal stroke), events per 1000 patient-years: integrated database of CANVAS and CANVAS-R
Description: (§1) Two clinical trials were completed to assess the cardiovascular safety and efficacy of canagliflozin, and how any potential benefits might balance against known risks. The complete protocols for said trials, name CANVAS and CANVAS-R, which protocols are each incorporated in their entirety herein, may be found on www.clinicaltrials.gov (more specifically at the following urls: https://clinicaltrials.gov/ct2/show/NCT01032629?term=canvas&rank=1 and https://clinicaltrials.gov/ct2/show/NCT01989754?term=canvas-r&rank=1, respectively).
(§2) All potential participants completed a 2-week, single-blind, placebo run-in period. Randomization was done centrally through an interactive web response system using a computer-generated randomization schedule prepared by the study sponsor using randomly permuted blocks. Participants in CANVAS were randomly assigned in a 1:1:1 ratio to canagliflozin 300 mg, canagliflozin 100 mg, or matching placebo, and participants in CANVAS-R were randomly assigned in a 1:1 ratio to canagliflozin or matching placebo administered at an initial dose of 100 mg daily with optional up-titration to 300 mg from week 13. Participants and all study staff were masked to individual treatment allocations until the completion of the study. Use of other background therapy for glycemic management and other risk factor control was according to best practice instituted in line with local guidelines including Renin Angiotensin System (RAS) blockade.
(§3) Post-randomization, face-to-face follow-up was scheduled for 3 visits in the first year and at 6-month intervals thereafter, with alternating telephone follow-up between face-to-face assessments. Every follow-up included inquiry about primary and secondary outcome events and serious adverse events. Urinary albumin:creatinine ratio was measured every 26 weeks in CANVAS-R, and at Week 12 and then annually in CANVAS. Serum creatinine measurement with estimation of glomerular filtration rate (eGFR) was performed at least every 26 weeks in both trials. Individuals that prematurely discontinued study treatment continued scheduled follow-up wherever possible, with extensive efforts made to obtain full outcome data for all during the final follow-up window that spanned November 2016 to February 2017.
(§4) The primary outcome was a composite of cardiovascular mortality, nonfatal myocardial infarction, or nonfatal stroke. Secondary outcomes were total mortality; cardiovascular mortality; progression of albuminuria; and the composite of cardiovascular mortality and hospitalization for heart failure. Progression of albuminuria grade was defined as a more then 30% increase in albuminuria and a switch from either normoalbuminuria to microalbuminuria or macroalbuminuria, or from microalbuminuria to macroalbuminuria. In the event that sequential testing was not significant for all then remaining outcomes were scheduled for assessment as exploratory variables in the integrated dataset.
(§5) Evaluation of total hospitalizations was also prespecified.
(§6) All major cardiovascular events, renal outcomes and deaths, plus selected safety outcomes were ratified by Endpoint Adjudication Committees. Intermediate markers of cardiovascular risk and requirement for antihyperglycemic agents were assessed to help understand the observed effects on cardiovascular and renal outcomes. Analyses of safety were of adverse events coded using the latest version of the MedDRA Dictionary. For bone fracture, the primary prespecified analysis was for low-trauma fracture events but secondary analysis of all fractures was also done. Amputations were assessed overall but numbers of cases above and below the ankle were also reported.
(§7) The primary hypothesis test was of noninferiority for the hazard ratio (HR) for the primary outcome at the margin of 1.3 for all canagliflozin versus placebo using the full integrated dataset and the intent to treat approach. […]

[2] = test system: men and women with type 2 diabetes and history or high risk of cardiovascular disease; experiment: CANVAS-R clinical trial, canagliflozin 100 mg with optional up-titration to 300 mg versus placebo; type: in vivo, human
Description: as §1, §2, §3, §4, §5, §6, §7

[3] = CANVAS Program, vs placebo, listed as canagliflozin
[4] = CANVAS Program, canagliflozin group
[5] = canagliflozin compared to placebo, combined trials n=10,142
[6] = integrated CANVAS and CANVAS-R, canagliflozin group
[7] = integrated database with removal of all study time and mortality events accrued prior to Nov. 20, 2012
[8] = integrated database with removal of all study time and mortality events accrued prior to Nov. 20, 2012, vs placebo

SMILES: Cc1ccc([C@@H]2O[C@H](CO)[C@@H](O)[C@H](O)[C@H]2O)cc1Cc1ccc(-c2ccc(F)cc2)s1 [Canagliflozin, canagliflozin]
- Cardiovascular mortality, hazard ratio (95% confidence interval) ([1]; CANVAS Program, vs placebo): 0.87 (0.72-1.06)
- Total (all-cause) mortality, hazard ratio (95% confidence interval) ([1]; CANVAS Program, vs placebo): 0.87 (0.74-1.01)
- Cardiovascular mortality, hazard ratio (95% confidence interval) [1, 3]: 0.87
- Total (all-cause) mortality, hazard ratio (95% confidence interval) [1, 3]: 0.87
- 40% reduction in eGFR, RRT, or renal death, n/N [1, 4]: 124/5795
- 40% reduction in eGFR, RRT, renal death or macroalbuminuria, n/N [1, 4]: 404/5795
- 40% reduction in eGFR, RRT, renal or CV death, n/N [1, 4]: 379/5795
- Cardiovascular mortality or hospitalization for heart failure, n/N [1, 4]: 364/5795
- Cardiovascular mortality, n/N [1, 4]: 268/5795
- Cardiovascular mortality, nonfatal myocardial infarction, or nonfatal stroke, n/N [1, 4]: 585/5795
- Hospitalization for heart failure, n/N [1, 4]: 123/5795
- Nonfatal myocardial infarction, n/N [1, 4]: 215/5795
- Nonfatal stroke, n/N [1, 4]: 158/5795
- Progression of albuminuria, n/N [1, 4]: 1341/5196
- Regression of albuminuria, n/N [1, 4]: 885/1679
- Total mortality, n/N [1, 4]: 400/5795
- Primary outcome (cardiovascular mortality, nonfatal myocardial infarction, or nonfatal stroke), hazard ratio (95% confidence interval) ([1]; CANVAS Program): 0.86 (0.75-0.97)
- Primary outcome (cardiovascular mortality, nonfatal myocardial infarction, or nonfatal stroke), hazard ratio (95% confidence interval) ([1]; CANVAS Program, listed as canagliflozin): 0.86
- 40% reduction in eGFR, RRT, or renal death, hazard ratio (95% confidence interval) ([1]; CANVAS Program, vs placebo): 0.60 (0.47-0.77)
- 40% reduction in eGFR, RRT, renal death or macroalbuminuria, hazard ratio (95% confidence interval) ([1]; CANVAS Program, vs placebo): 0.57 (0.50-0.66)
- 40% reduction in eGFR, RRT, renal or CV death, hazard ratio (95% confidence interval) ([1]; CANVAS Program, vs placebo): 0.77 (0.66-0.89)
- Cardiovascular mortality or hospitalization for heart failure, hazard ratio (95% confidence interval) ([1]; CANVAS Program, vs placebo): 0.78 (0.67-0.91)
- Hospitalization for heart failure, hazard ratio (95% confidence interval) ([1]; CANVAS Program, vs placebo): 0.67 (0.52-0.87)
- Nonfatal myocardial infarction, hazard ratio (95% confidence interval) ([1]; CANVAS Program, vs placebo): 0.85 (0.69-1.05)
- Nonfatal stroke, hazard ratio (95% confidence interval) ([1]; CANVAS Program, vs placebo): 0.90 (0.71-1.15)
- Progression of albuminuria, hazard ratio (95% confidence interval) ([1]; CANVAS Program, vs placebo): 0.73 (0.67-0.79)
- Regression of albuminuria, hazard ratio (95% confidence interval) ([1]; CANVAS Program, vs placebo): 1.70 (1.51-1.91)
- 40% reduction in eGFR, RRT, or renal death, hazard ratio (95% confidence interval) [1, 3]: 0.60
- Progression of albuminuria, hazard ratio (95% confidence interval) [1, 3]: 0.73
- Use of other antihyperglycemic agents during follow-up, lower than placebo group ([1]; canagliflozin compared to placebo group): 9.3%
- Mean difference in body weight [1, 5]: -1.60 kg
- Mean difference in glycated hemoglobin [1, 5]: −0.58%
- Mean difference in systolic blood pressure [1, 5]: −3.93 mmHg
- Composite of sustained 40% reduction in eGFR, end-stage kidney disease or renal death, events per 1000 patient-years [1, 6]: 5.5 /1000 patient-years
- Progression of albuminuria grade, events per 1000 patient-years [1, 6]: 89.4 /1000 patient-years
- Primary outcome (cardiovascular mortality, nonfatal myocardial infarction, or nonfatal stroke), events per 1000 patient-years ([1]; canagliflozin group): 26.93 per 1000 patient-years
- Primary outcome (cardiovascular mortality, nonfatal myocardial infarction, or nonfatal stroke), events per 1000 patient-years ([1]; canagliflozin group, listed as canagliflozin): 26.9 per 1000 patient-years
- All-cause mortality, events per 1000 patient-years [1, 7]: 19.05 per 1000 patient-years
- Cardiovascular death, events per 1000 patient-years [1, 7]: 12.82 per 1000 patient-years
- All-cause mortality, hazard ratio (95% confidence interval) [1, 8]: 0.90 (0.76-1.07)
- Cardiovascular death, hazard ratio (95% confidence interval) [1, 8]: 0.96 (0.77-1.18)
- Primary outcome hazard ratio when imputation for missing events was performed ([1]; multiple imputation for missing data, vs placebo): 0.85
- Albumin:creatinine ratio progression, events per 1000 patient-years [2]: 99.80 per 1000 patient-years
- Cardiovascular death or hospitalization for heart failure, events per 1000 patient-years [2]: 15.85 per 1000 patient-years
- Cardiovascular death, events per 1000 patient-years [2]: 10.06 per 1000 patient-years
- 40% reduction in eGFR, RRT, or renal death, n/N ([2]; canagliflozin group): 33/2907
- 40% reduction in eGFR, RRT, renal death or macroalbuminuria, n/N ([2]; canagliflozin group): 112/2907
